These are literature values, as cited in US20050013753A1, “Heat-transfer systems” (priority 2003, published 2005).

Data set [1] concerns rats. Conditions: in rats; DuPont MSDS.
A further data set has as its system rabbits. Conditions: in rabbits; DuPont MSDS.
Data set [2] relates to rats. Conditions: in rats, DuPont MSDS.
The conditions of data set [3]: animal data; DuPont MSDS.
For data set [4] the following is noted: animal data; DuPont MSDS. This is another data set of the same source.
The conditions of data set [5]: animal data; DuPont MSDS. The source holds these as a separate data set.
Data set [6] relates to rats.
Data set [7] deals with rats. Conditions: repeated inhalation exposure.
The conditions of data set [8]: animal data.
A further data set relates to bacterial cells. The settings on record: in vitro.
Data set [9] has as its system mammalian cells. Conditions: in vitro.
Data set [10] has as its system mammalian cells.
The subject of another data set is mouse. The settings on record: in vivo mouse.
The conditions of data set [11]: in water; DuPont MSDS.
The conditions of data set [12]: DuPont MSDS.

Read-outs that look alike come from different tables or passages of the source.

With `OCCCO` [1,3-Propanediol, 1,3-propanediol], in the data set on rats [1], the “Oral LD50” value was 15,000 mg/kg. In the data set with rabbits, the “Dermal LD50” value is recorded as > 20,000 mg/kg. Besides, in the data set with rats [2], the “Inhalation 4 hour ALC” value is recorded as “Inhalation 4 hour ALC: >5.0 mg/L in rats”. Besides, in data set [3], the Eye irritation entry is listed as “not an eye irritant”. Besides, in data set [4], the Skin irritation result is listed as “slight skin irritant”. In [5], the Skin sensitization result is listed as “not a skin sensitizer”. Besides, the “Adverse effects to sperm and reproductive organs” value in the data set with rats [6] (oral repeated dose study in rats) was “no adverse effects to sperm and reproductive organs were observed”. For the same compound, the “Changes in clinical pathology, pathology (including sperm analyses), or in-life measurements” value in the data set on rats [6] (rats, repeated oral gavage) is recorded as “no toxicologically important changes”. Also, the NOEL in the data set with rats [6] (rats, repeated oral gavage, highest dose tested) was 1000 mg/kg/day; in the data set with rats [7], 1800 mg/m3. Also, the “Changes in clinical pathology, pathology, or in-life measurements” value with rats [7] is given as “no toxicologically important changes”. In data set [8], the “Toxicity to the fetus” value is “not uniquely toxic to the fetus”. Also, the Mutagenicity result in the data set on bacterial cells and with mammalian cells [9] was “not mutagenic” each time. The “Chromosome aberrations, repeat study” value in the data set with mammalian cells [10] (1,3-propanediol manufactured by DuPont) is reported as “negative for all test conditions”. Also, in the data set on mammalian cells [10] (under certain conditions), the Chromosome aberrations entry is recorded as “An increase in chromosome aberrations was observed”. For the same compound, in the data set on mouse, the Micronucleus assay result is recorded as “negative”. Further, the pH result in data set [11] was “pH: 4.5-7 in water. Color: Colorless”. In data set [12], the “Chemical Stability” value was “Chemical Stability: Stable at normal temperatures and storage conditions”.
